This is an account of results in paper PMC11311031, “Novel Thienopyrimidine-Hydrazinyl Compounds Induce DRP1-Mediated Non-Apoptotic Cell Death in Triple-Negative Breast Cancer Cells” (Cancers, 2024).

What all share (type): cell-based
Experiment [1] relates to mitochondrial membrane potential in BT-20 cells. The experiment is described as follows: Mitochondrial membrane potential (TMRE dye). Particulars: 200 μM, 4 h, p < 0.0001. Here is the method: The mitochondrial membrane potential (MMP) was determined using fluorescence microscopy by staining cellular mitochondria with tetramethylrhodamine ethyl ester (TMRE) dye (Invitrogen, Waltham, MA, USA). […] As a positive control, cells were incubated with carbonyl cyanide 3-chlorophenylhydrazone (CCCP) (TargetMol, Boston, MA, USA), a compound that uncouples mitochondrial oxidative phosphorylation, at a concentration of 200 μM, for 4 h. After incubation with the test compounds, the media was carefully removed from each well and incubated for 20 min with 0.4 µM of TMRE in PBS. Finally, the dye was carefully removed and replaced with fresh PBS. The cells were then imaged to detect MMP using a Cytation 7 Cell Imaging Multi-Mode Reader.

Experiment [2] relates to cytochrome c in BT-20 cells. As to the kind of experiment: Immunofluorescence of cytochrome c. Particulars: 1 μM, p < 0.0001. Here is the method: Immunofluorescence assays were conducted as previously described. In total, 100,000 BT-20 cells per well were plated on coverslips in a 6-well plate. […] After the incubation period, the media was carefully removed, and the cells were fixed using 1 mL of 4% paraformaldehyde for 15 min at room temperature. The cells were rinsed three times with PBS for 5 min. Five hundred microliters of 0.2% Trition-X100 was added to each well for 10 min to permeabilize the cells. The cells were washed three times with PBS for 5 min each. The cells were then blocked with 3% bovine serum albumin (BSA) in PBS, containing 0.1% Tween, for 2 h at room temperature before incubation with either cytochrome c (1:250), DRP1 (1:50), or phosphorylated-DRP1(1:450) monoclonal antibodies (Cell Signaling Technology, Danvers, MA, USA) overnight at 4 °C. The cells were incubated with either anti-mouse Alexa Fluor™ 594 (Invitrogen, Waltham, MA, USA) or anti-rabbit Alexa Fluor™ 488 at room temperature for 1 h. Nuclei were finally stained with Hoechst 33342 (ImmunoChemistry Technologies, Davis, CA, USA) for 10 min. Images were captured using a Cytation 7 Cell Imaging Multi-Mode Reader.

In experiment [3] the test system is BT-20 cells. The experiment is described as follows: Sulforhodamine B (SRB) assay. Particulars: Homo sapiens, 72 h incubation, read-out: IC50 ± SD, BT-20, SRB Assay. Here is the method: (§1) The cytotoxic efficacy of thienopyrimidine derivatives was determined as previously described, using 3 different assays: (1) (3-(4,5-dimethylthiazol-2-yl)-2,5-diphenyltetrazolium bromide) (MTT) (Avantor, Radnor, PA, USA), (2) CellTiter-Blue (CTB) (Promega, Madison, WI, USA), and (3) sulforhodamine B (SRB) (TargetMol, Boston, MA, USA) assay. For these assays, cells were harvested using 0.05% trypsin-ethylenediamine-tetraacetic acid (EDTA) (Corning, Corning, NY, USA), seeded at a density of 3000–5000 cells/well in a 96-well plate, and incubated at 37 °C overnight. The next day, the cells were incubated with different concentrations of the test compounds (0.1, 0.3, 1, 3, 10, 30, or 100 μM) and incubated for 72 h. […] In contrast, vehicle control (cells incubated in drug-free medium) contained less than 0.1% of DMSO.
For the SRB assay, the cells were fixed with 50% (w/v) tri-chloroacetic acid (TCA) (Avantor, Radnor, PA, USA) and incubated at 4 °C for 1 h. The cells were washed 4 times with deionized, distilled water, and air-dried at room temperature. The next day, the cells were stained with 0.04% (w/v) SRB solution for 1 h at room temperature and washed 4 times with 1% (v/v) acetic acid (Avantor, Radnor, PA, USA). After airdrying the plates overnight, 10 mM Tris base solution (pH 10.5) was added to each well and pipetted thoroughly to dissolve the dye, and absorbance was read at 510 nm.
On the technique in general: Sulforhodamine B stains cellular protein and so reports cell mass.

Experiment [4] relates to BT-20 cells. As to the kind of experiment: Nuclear staining with Hoechst 33342. Particulars: 1 μM, 24 h. Here is the method: Briefly, 100,000 cells/well of BT-20 cells were plated in a 6-well plate containing clear sterile coverslips. […] Next, the cells were stained with 0.5% v/v of the Hoechst 33342 dye for 15 min. 4% paraformaldehyde at a concentration of 4%, was used to fix cells at room temperature for another 15 min. After 1 wash with PBS, the cells were mounted on a clear slide, using Fluoromount-G (SouthernBiotech, Birmingham, AL, USA). The slides were visualized to detect nuclear fragmentation using the Cytation 7 Cell Imaging Multi-Mode Reader (Agilent Technologies, Winooski, VT, USA), which provided data related to nuclear fragmentation.

Another experiment has as its system ROS in BT-20 cells. As to the kind of experiment: Intracellular ROS (H2DCFDA dye). Particulars: 2 μM, 2 h, p < 0.0001. An excerpt: It has been reported that ROS can cause the death of cancer cells by inducing apoptosis. Indeed, high levels of ROS activate the p53 enzyme system, which promotes late-stage apoptosis by upregulating the levels of pro-apoptotic proteins such as BAK and BAX and downregulating the levels of anti-apoptotic proteins such as BCL-2, BCL-xL, and MCL-1 [120]. In addition, ROS induce permeabilization of the outer mitochondrial membrane by opening the mitochondrial permeability transition pore (mPTP). This alters the electrochemical proton gradient across the mitochondria, causing the release of pro-apoptotic molecules into the cytoplasm, which are involved in apoptotic cell death. […] Cellular esterases hydrolyze the acetyl groups after the dye is taken up by cells, resulting in the formation of H2DCF [124]. Subsequently, intracellular ROS oxidize H2DCF to produce 2′,7′-dichlorofluorescein, which emits green fluorescence (excitation and emission wavelengths of 485 nm and 522 nm, respectively).

The subject of experiment [5] is caspase 3/7 activity in BT-20 cells. The experiment is described as follows: Caspase-Glo 3/7 activity assay. Here is the method:
Caspase-Glo® 3/7 Assay (Promega, Madison, WI, USA) was used to study the caspase 3/7 activity in BT-20 cells incubated with lead compounds. Briefly, 3000 BT-20 TNBC cells/well were plated in an opaque 96-well plate. […] Next, a mixture of Caspase-Glo® 3/7 buffer and lyophilized Caspase-Glo® 3/7 substrate was equilibrated to room temperature. The plates were removed from the incubator and allowed to adjust to room temperature for 30 min. Next, 100 μL of the Caspase-Glo® 3/7 reagent was added to each well, and the samples were placed in a shaker for 30 s. After 3 h of incubation at room temperature, luminescence, which indicates cleavage of […] caspases (caspase-3 and -7), was measured using a microplate reader (Agilent Technologies, Winooski, VT, USA).

The subject of experiment [6] is caspases (-3, -7, -8, -9), BAX, BAK, BCL-2, PARP in BT-20 cells. As to the kind of experiment: Western blot of apoptotic and anti-apoptotic proteins. Particulars: 1 μM. Here is the method:
Subsequently, the cells were washed with ice-cold PBS. The subcellular fraction was obtained by scraping the cells using a cell scrapper in ice-cold cytosolic lysis buffer. Next, the lysates were left on ice for 15 min. Nonyl phenoxypolyethoxylethanol (NP-40) (10% v/v) was introduced in the lysates and subjected to 2–3 min incubation. The lysates were then centrifuged for 10 min at 4 °C and 14,000 rpm. The resultant protein concentration in the lysates was determined using bicinchoninic acid (BCA) assay. Thirty micrograms of the proteins were loaded and separated on a 10% acrylamide SDS-PAGE gel, transferred to a PVDF membrane, and incubated overnight at 4 °C, with primary antibodies against cleaved caspase-3, caspase-3, cleaved caspase-7, caspase-7, cleaved caspase-9, caspase-9, cleaved caspase-8, caspase-8, BAX, BAK, BCL-2, cleaved PARP, PARP, p-DRP1, DRP1, p-MFF, MFF, FIS1, MFN1, MFN2, OPA1, and β-actin. […] ImageJ software (National Institutes of Health, Bethesda, MD, USA) was used to quantify the protein. Cellular proteins were quantified as a ratio to β-actin and were normalized to the vehicle control. The densitometry readings/intensity ratio of each band, andthe original whole western blot (uncropped blots) showing all the bands with the molecular weight markers, is shown in the Supplemental Materials.

In experiment [7] the test system is BT-20 cells. The experiment is described as follows: MTT cell cytotoxicity assay. Particulars: Homo sapiens, 72 h incubation, read-out: IC50 ± SD, BT-20, MTT Assay. As for the experimental part: as §1
For the MTT assay, 4 mg/mL MTT was added to the cells and incubated for 3 h to allow for the conversion of MTT (yellow) to formazan crystals (dark blue). Following incubation, the media was aspirated and DMSO was added to solubilize the formazan crystals. The Cytation 7 Cell Imaging Multi-Mode Reader (Agilent Technologies, Winooski, VT, USA) was used to measure the absorbance at 570 nm.
(Tetrazolium assays rely on reduction of a dye to a coloured formazan, in cell work by metabolically active cells.)

The subject of experiment [8] is BT-20 cells. The experiment is described as follows: CellTiter-Blue (CTB) assay. Particulars: Homo sapiens, 72 h incubation, read-out: IC50 ± SD, BT-20, CTB Assay. Here is the method:
as §1
For the CTB assay, the CTB reagent was added to cells and incubated for 3 h to allow the reduction of resazurin (emits a blue color and low fluorescence) by metabolically active cells to resorufin (emits a pink color and high fluorescence). Finally, the plates were shaken for 10 s in a plate shaker, and fluorescence was measured at 560/590 nm.

For experiment [9], the system named is mouse embryonic fibroblast (MEF) cells. The experiment is described as follows: β-Galactosidase staining (senescence), positive control. Particulars: 250 nM, 24 h. As for the experimental part: BT-20 cells were plated at 4000/well into a 96-well plate and incubated overnight. […] Four thousand cells/well of senescent MEFs were also seeded. The plate was incubated for 24 h. Once 80–100% confluency was obtained, mouse embryonic fibroblast (MEF) cells were incubated with 250 nM of doxorubicin for 24 h to induce senescence (positive control), followed by a change in media. The cells were incubated for another week and the media was changed every 3–4 days.
The next day, the cells were washed with PBS and fixed with 3% formaldehyde for 5 min. The cells were washed with PBS twice, followed by an addition of β-galactosidase (Research Products International, Racine, WI, USA) stain. The cells were placed in a 37 °C incubator with no CO2 overnight and imaged to detect β-galactosidase staining the next day using the Color Brightfield channel on the Cytation 7 Imaging Multi-Mode Reader.

Structures are written as SMILES. Entries after “also recorded” stand apart in the source; their conditions may differ.

Take `N#CC(C#N)=NNc1cccc(Cl)c1` [CCCP, carbonyl cyanide 3-chlorophenylhydrazone]: the “TMRE fluorescence compared to vehicle control (positive control)” value in [1] is recorded as “significantly lower”.
As for `CC(=O)O[C@H]1C(=O)[C@@]2(C)[C@H]([C@H](OC(=O)c3ccccc3)[C@]3(O)C[C@H](OC(=O)[C@H](O)[C@@H](NC(=O)c4ccccc4)c4ccccc4)C(C)=C1C3(C)C)[C@]1(OC(C)=O)CO[C@@H]1C[C@@H]2O` [PTX, Paclitaxel], the “cytochrome c release compared to vehicle control” value in experiment [2] was “significantly enhanced”. Further, the IC50 in the experiment with BT-20 cells [3] came out at 50 nM; in the experiment on BT-20 cells [7] it was 50 nM; in the experiment on BT-20 cells [8], 70 ± 30 nM. Further, the “level of nuclear fragmentation (positive control)” value in the experiment with BT-20 cells [4] is listed as “significantly increased”. Moreover, the “ROS levels compared to vehicle control” value with ROS in BT-20 cells was “significantly elevated”. For the same compound, in experiment [5] (0.1 μM), the “level of bioluminescence (activation of caspase-3 and caspase-7)” value is recorded as “significantly increased”. Moreover, the “caspase-3 and 7 activity (Caspase-Glo 3/7)” value in experiment [5] (1 µM, n = 2) is reported as “induced; also recorded: increased”. The “Bcl-2 levels compared to vehicle control” value in experiment [6] was “significant decrease”. The “levels of cleaved caspase-3, -7, -8, -9 and total caspase-8 compared to vehicle control” value in experiment [6] is given as “significantly upregulated”.
In the case of `COc1cccc2c1C(=O)c1c(O)c3c(c(O)c1C2=O)C[C@@](O)(C(=O)CO)C[C@@H]3O[C@H]1C[C@H](N)[C@H](O)[C@H](C)O1` [doxorubicin], in experiment [9], the “SA-β-gal staining of MEF cells (positive control)” value was “stained blue”.

What is called IC50 is the midpoint of a concentration-inhibition curve.
